Experimental data from ChEMBL document CHEMBL4665678, “Overview of AKR1C3: Inhibitor Achievements and Disease Insights” (J Med Chem, 2020).
Positions count from the first letter of the chain named. Blank lines part the entries; values can stand above or below the compound they belong to.

Key:
AKR1C2 = molecular target: T1, AKR1C2 (Homo sapiens, UniProt P52895); test: Inhibition of AKR1C2 (unknown origin) using 9,10-phenanthrenequinone as substrate at 60 uM relative to control; details: probe 9,10-phenanthrenequinone
T1 sequence (P52895 whole entry): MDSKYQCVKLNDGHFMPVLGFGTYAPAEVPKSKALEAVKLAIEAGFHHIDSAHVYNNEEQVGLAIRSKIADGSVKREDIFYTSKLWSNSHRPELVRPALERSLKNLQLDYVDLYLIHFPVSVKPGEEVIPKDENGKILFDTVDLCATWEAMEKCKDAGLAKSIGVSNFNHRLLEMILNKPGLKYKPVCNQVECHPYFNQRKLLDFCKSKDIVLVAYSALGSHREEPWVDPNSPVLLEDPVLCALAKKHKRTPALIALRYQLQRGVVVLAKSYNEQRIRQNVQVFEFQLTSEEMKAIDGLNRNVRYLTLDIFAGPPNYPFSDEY

[1] = molecular target: T2, Aldo-keto reductase family 1 member C3 (Homo sapiens, UniProt P42330); test: Inhibition of AKR1C3 (unknown origin) using 4-androstene-3,17-dione as substrate
T2 sequence (P42330 whole entry): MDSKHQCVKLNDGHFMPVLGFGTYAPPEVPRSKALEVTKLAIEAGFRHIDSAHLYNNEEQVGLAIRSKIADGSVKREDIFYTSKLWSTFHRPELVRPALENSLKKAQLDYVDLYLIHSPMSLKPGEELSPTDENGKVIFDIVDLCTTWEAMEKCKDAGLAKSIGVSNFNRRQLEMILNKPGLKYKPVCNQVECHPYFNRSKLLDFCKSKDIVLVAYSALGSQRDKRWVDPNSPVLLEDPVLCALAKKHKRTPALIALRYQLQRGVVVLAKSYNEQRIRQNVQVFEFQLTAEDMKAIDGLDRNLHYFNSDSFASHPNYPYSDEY

[2] = molecular target: T2, Aldo-keto reductase family 1 member C3; test: Inhibition of AKR1C3 (unknown origin) using 9,10-phenanthrenequinone as substrate
[3] = molecular target: T3, Prostaglandin G/H synthase 1 (Ovis aries, UniProt P05979); test: Inhibition of ovine COX-1 using [14C] arachidonic acid as substrate preincubated for 20 mins followed by substrate addition measured after 30 sec by thin layer chromatography assay
T3 sequence (P05979 whole entry): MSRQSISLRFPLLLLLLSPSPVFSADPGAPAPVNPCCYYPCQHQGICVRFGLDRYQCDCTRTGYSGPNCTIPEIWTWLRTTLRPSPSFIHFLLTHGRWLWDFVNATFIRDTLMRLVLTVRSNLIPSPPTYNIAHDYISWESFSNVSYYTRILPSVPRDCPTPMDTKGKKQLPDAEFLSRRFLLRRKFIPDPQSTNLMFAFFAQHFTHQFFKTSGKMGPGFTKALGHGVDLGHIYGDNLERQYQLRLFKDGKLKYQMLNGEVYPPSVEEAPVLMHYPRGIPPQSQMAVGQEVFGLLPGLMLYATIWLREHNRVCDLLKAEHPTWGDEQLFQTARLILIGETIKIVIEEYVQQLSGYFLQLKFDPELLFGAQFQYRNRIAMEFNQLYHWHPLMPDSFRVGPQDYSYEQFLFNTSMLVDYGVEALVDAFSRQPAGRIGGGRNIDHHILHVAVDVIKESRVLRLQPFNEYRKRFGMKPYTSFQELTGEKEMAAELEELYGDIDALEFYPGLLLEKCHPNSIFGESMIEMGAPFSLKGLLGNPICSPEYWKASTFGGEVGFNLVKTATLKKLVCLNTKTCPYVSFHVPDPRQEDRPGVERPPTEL

AKR1C1 = molecular target: T4, AKR1C1 (Homo sapiens, UniProt Q04828); test: Inhibition of AKR1C1 (unknown origin) using 9,10-phenanthrenequinone as substrate at 60 uM relative to control; details: probe 9,10-phenanthrenequinone
T4 sequence (Q04828 whole entry): T1 sequence (P52895 whole entry) with V38T, H47R, V54L, S87C, M151V, H170R, L172Q

[4] = molecular target: T5, Prostaglandin G/H synthase 2 (Homo sapiens, UniProt P35354); test: Inhibition of human COX-2 expressed in Sf9 insect cells using [14C] arachidonic acid as substrate preincubated for 20 mins followed by substrate addition measured after 30 sec by thin layer chromatography assay
T5 sequence (P35354 whole entry): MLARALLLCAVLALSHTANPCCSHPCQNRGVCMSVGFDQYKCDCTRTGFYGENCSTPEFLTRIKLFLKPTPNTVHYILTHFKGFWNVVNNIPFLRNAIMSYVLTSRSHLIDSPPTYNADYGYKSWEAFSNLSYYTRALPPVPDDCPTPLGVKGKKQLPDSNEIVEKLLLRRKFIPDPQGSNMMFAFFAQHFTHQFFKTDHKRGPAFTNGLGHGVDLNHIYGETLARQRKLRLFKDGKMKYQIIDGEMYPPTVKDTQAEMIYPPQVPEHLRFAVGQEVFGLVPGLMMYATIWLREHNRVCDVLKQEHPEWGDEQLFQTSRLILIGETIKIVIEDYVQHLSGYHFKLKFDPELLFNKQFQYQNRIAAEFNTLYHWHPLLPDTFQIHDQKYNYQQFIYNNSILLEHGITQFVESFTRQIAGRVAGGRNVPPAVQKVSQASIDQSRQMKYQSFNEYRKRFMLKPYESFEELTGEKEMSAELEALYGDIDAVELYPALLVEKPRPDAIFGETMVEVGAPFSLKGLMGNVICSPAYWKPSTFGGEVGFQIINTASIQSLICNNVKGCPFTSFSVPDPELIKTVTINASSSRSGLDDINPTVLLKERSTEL

[5] = molecular target: T2, Aldo-keto reductase family 1 member C3; test: Inhibition of N-terminal His-tagged human AKR1C3 (1 to 323 residues) expressed in Escherichia coli using 4-adione as substrate in presence of NADPH by fluorescence method
[6] = molecular target: T2, Aldo-keto reductase family 1 member C3; test: Inhibition of AKR1C3 (unknown origin) expressed in human HCT116 cells incubated for 2 to 4 hrs by UHPLC analysis; assay type: cell-based, HCT-116
[7] = molecular target: T2, Aldo-keto reductase family 1 member C3; test: Inhibition of human AKR1C3 expressed in Escherichia coli incubated for 30 mins in presence of NADPH regeneration system by UHPLC method based Lineweaver-Burk double-reciprocal plot analysis
[8] = molecular target: T2, Aldo-keto reductase family 1 member C3; test: Inhibition of human AKR1C3 expressed in Escherichia coli incubated for 30 mins in presence of NADPH regeneration system by UHPLC analysis
[9] = molecular target: T2, Aldo-keto reductase family 1 member C3; test: Inhibition of AKR1C3 (unknown origin) expressed in human HCT116 cells incubated for 3 to 6 hrs by UHPLC analysis; assay type: cell-based, HCT-116
[10] = molecular target: T6, Aldo-keto reductase family 1 member C3 (Homo sapiens) (UniProt P42330); test: Inhibition NH2-terminal His6-tagged recombinant human AKR1C3 expressed in Escherichia coli BL21(DE3) cells using assessed as phenanthrenequinone reduction
T6 sequence (whole entry): T2 sequence (P42330 whole entry)

[11] = molecular target: T7, Aldo-keto reductase family 1 member C1 (Homo sapiens, UniProt Q04828); test: Inhibition of NH2-terminal His6-tagged recombinant human AKR1C1 expressed in Escherichia coli BL21(DE3) cells using assessed as phenanthrenequinone reduction
T7 sequence (Q04828 whole entry): T1 sequence (P52895 whole entry) with V38T, H47R, V54L, S87C, M151V, H170R, L172Q

[12] = molecular target: T8, Aldo-keto reductase family 1 member C2 (Homo sapiens, UniProt P52895); test: Inhibition NH2-terminal His6-tagged recombinant human AKR1C2 expressed in Escherichia coli BL21(DE3) cells using assessed as phenanthrenequinone reduction
T8 sequence (P52895 whole entry): T1 sequence (P52895 whole entry)

[13] = molecular target: T2, Aldo-keto reductase family 1 member C3; test: Inhibition of human AKR1C3 expressed in Escherichia coli preincubated for 15 mins followed by Adion addition and measured after 30 mins by HPLC analysis

SMILES: COc1ccc2c(c1)c(CCNC(C)=O)cn2C(=O)c1ccc(Cl)cc1
inhibition at 60 µM (AKR1C2): < 10% | IC50 [1]: 11.4 µM | IC50 [2]: 7.8 µM | IC50 [3]: > 60 µM | inhibition at 60 µM (AKR1C1): < 10% | IC50 [4]: > 60 µM

SMILES: COc1ccc2cc3[n+](cc2c1OC)CCc1cc2c(cc1-3)OCO2 [BERBERINE]
IC50 [5]: 4.08 µM

SMILES: CO[C@@H]1C=C[C@@]23c4cc5c(cc4CO[C@]2(O)CN(C)[C@H]3C1)OCO5 [TAZETTINE]
IC50 [13]: 15.8 µM

Continued, values first:

IC50 [6]: 7.9 µM | Ki [7]: 14 µM | IC50 [8]: 9.5 µM
SMILES: Nc1cc(C(F)(F)F)c(-c2cc(N3CCOCC3)nc(N3CCOCC3)n2)cn1 [BUPARLISIB]

Ki ([8]; read-out: Ki(app)): 70 nM | IC50 [9]: 230 nM
SMILES: CCc1cnn2c(NCc3ccc[n+]([O-])c3)cc(N3CCCC[C@H]3CCO)nc12 [DINACICLIB]

Kis [10]: 153 µM/L | Kis [11]: 162 uM/L | Kis [12]: 49 uM/L
SMILES: CC/C=C\CC1C(=O)CCC1CC(=O)OC (stereo unspecified) [METHYL JASMONATE]
